Earlier results on 2 molecules are cited in US11596597B2, “Depot formulation” (Cipla Limited, priority 2018, dated 2023).

The conditions of the series: stated in words, no test described.

Regarding `c1cnc2cc3c(cc2n1)[C@@H]1CNC[C@H]3C1` [varenicline base], the solubility in water result is “practically insoluble”.
Turning to “7,8,9,10-tetrahydro-6,10-methano-6H-pyrazino [2,3-h] [3]-benzazepine, (2R, 3R)-2,3-dihydroxybutanedioate [Varenicline salt]”, the solubility in water result is on record as “freely soluble”.
